From the supplement of paper PMC10307832

Key:
Test in all cases: relative viability (nuclei count vs DMSO), 5 days (fraction); higher = more cells survive
201T = system: 201T
Outline: (§1)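 Nuclei were stained with Hoechst during a one-step fixation (final 0.05% Triton X-100, 1% formaldehyde, 1 ug/ml Hoechst) carried out 5 days after dosing, then counted on 4× images. The cells, lung cancer lines in 1536-well plates, had been dosed by pin tool the day after seeding with one drug alone or a fixed anchor-drug dose plus five library-drug doses (not always all listed) in √10 steps. Relative viability is the nuclei count in treated wells divided by that in vehicle wells, and each value is the median of duplicate plates.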

BEN = system: BEN
Outline: as §1

EMC-BAC-2 = system: EMC-BAC-2
Outline: as §1

HARA = system: HARA
Outline: as §1

LCLC-103H = system: LCLC-103H
Outline: as §1

LOU-NH91 = system: LOU-NH91
Outline: as §1

NCI-H1395 = system: NCI-H1395
Outline: as §1

NCI-H1666 = system: NCI-H1666
Outline: as §1

NCI-H1993 = system: NCI-H1993
Outline: as §1

NCI-H2009 = system: NCI-H2009
Outline: as §1

NCI-H2023 = system: NCI-H2023
Outline: as §1

NCI-H2087 = system: NCI-H2087
Outline: as §1

NCI-H2126 = system: NCI-H2126
Outline: as §1

NCI-H2347 = system: NCI-H2347
Outline: as §1

NCI-H23 = system: NCI-H23
Outline: as §1

NCI-H3122 = system: NCI-H3122
Outline: as §1

NCI-H441 = system: NCI-H441
Outline: as §1

NCI-H596 = system: NCI-H596
Outline: as §1

NCI-H647 = system: NCI-H647
Outline: as §1

NCI-H650 = system: NCI-H650
Outline: as §1

NCI-H727 = system: NCI-H727
Outline: as §1

NCI-H838 = system: NCI-H838
Outline: as §1

CC1(C)CCC(c2ccc(Cl)cc2)=C(CN2CCN(c3ccc(C(=O)NS(=O)(=O)c4ccc(N[C@H](CCN5CCOCC5)CSc5ccccc5)c(S(=O)(=O)C(F)(F)F)c4)cc3)CC2)C1 [Navitoclax] + Cc1nc(Nc2ncc(C(=O)Nc3c(C)cccc3Cl)s2)cc(N2CCN(CCO)CC2)n1 [Dasatinib] (partner 0.075 µM)
relative viability (201T; first compound 0.005 µM): 0.603
relative viability (201T; first compound 0.01581 µM): 0.662
relative viability (201T; first compound 0.05 µM): 0.587
relative viability (201T; first compound 0.1581 µM): 0.592
relative viability (201T; first compound 0.5 µM): 0.714
relative viability (BEN; first compound 0.005 µM): 0.301
relative viability (BEN; first compound 0.01581 µM): 0.312
relative viability (BEN; first compound 0.05 µM): 0.333
relative viability (BEN; first compound 0.1581 µM): 0.297
relative viability (BEN; first compound 0.5 µM): 0.0643
relative viability (EMC-BAC-2; first compound 0.005 µM): 0.29
relative viability (EMC-BAC-2; first compound 0.01581 µM): 0.354
relative viability (EMC-BAC-2; first compound 0.05 µM): 0.312
relative viability (EMC-BAC-2; first compound 0.1581 µM): 0.267
relative viability (EMC-BAC-2; first compound 0.5 µM): 0.288
relative viability (HARA; first compound 0.005 µM): 0.308
relative viability (HARA; first compound 0.01581 µM): 0.277
relative viability (HARA; first compound 0.1581 µM): 0.29
relative viability (HARA; first compound 0.5 µM): 0.242
relative viability (LCLC-103H; first compound 0.005 µM): 0.468
relative viability (LCLC-103H; first compound 0.01581 µM): 0.496
relative viability (LCLC-103H; first compound 0.05 µM): 0.31
relative viability (LCLC-103H; first compound 0.1581 µM): 0.539
relative viability (LCLC-103H; first compound 0.5 µM): 0.474
relative viability (LOU-NH91; first compound 0.005 µM): 0.522
relative viability (LOU-NH91; first compound 0.01581 µM): 0.566
relative viability (LOU-NH91; first compound 0.05 µM): 0.454
relative viability (LOU-NH91; first compound 0.1581 µM): 0.5
relative viability (LOU-NH91; first compound 0.5 µM): 0.377
relative viability (NCI-H1395; first compound 0.005 µM): 0.404
relative viability (NCI-H1395; first compound 0.01581 µM): 0.42
relative viability (NCI-H1395; first compound 0.05 µM): 0.378
relative viability (NCI-H1395; first compound 0.1581 µM): 0.387
relative viability (NCI-H1395; first compound 0.5 µM): 0.483
relative viability (NCI-H1666; first compound 0.005 µM): 0.647
relative viability (NCI-H1666; first compound 0.01581 µM): 0.853
relative viability (NCI-H1666; first compound 0.05 µM): 0.755
relative viability (NCI-H1666; first compound 0.1581 µM): 0.833
relative viability (NCI-H1666; first compound 0.5 µM): 0.766
relative viability (NCI-H1993; first compound 0.005 µM): 0.674
relative viability (NCI-H1993; first compound 0.01581 µM): 0.689
relative viability (NCI-H1993; first compound 0.05 µM): 0.467
relative viability (NCI-H1993; first compound 0.1581 µM): 0.625
relative viability (NCI-H1993; first compound 0.5 µM): 0.643
relative viability (NCI-H2009; first compound 0.005 µM): 0.232
relative viability (NCI-H2009; first compound 0.01581 µM): 0.383
relative viability (NCI-H2009; first compound 0.05 µM): 0.264
relative viability (NCI-H2009; first compound 0.1581 µM): 0.336
relative viability (NCI-H2009; first compound 0.5 µM): 0.319
relative viability (NCI-H2023; first compound 0.005 µM): 0.488
relative viability (NCI-H2023; first compound 0.01581 µM): 0.594
relative viability (NCI-H2023; first compound 0.05 µM): 0.621
relative viability (NCI-H2023; first compound 0.1581 µM): 0.648
relative viability (NCI-H2023; first compound 0.5 µM): 0.561
relative viability (NCI-H2087; first compound 0.005 µM): 0.901
relative viability (NCI-H2087; first compound 0.01581 µM): 0.88
relative viability (NCI-H2087; first compound 0.1581 µM): 0.887
relative viability (NCI-H2087; first compound 0.5 µM): 0.793
relative viability (NCI-H2126; first compound 0.005 µM): 0.601
relative viability (NCI-H2126; first compound 0.01581 µM): 0.709
relative viability (NCI-H2126; first compound 0.05 µM): 0.644
relative viability (NCI-H2126; first compound 0.1581 µM): 0.509
relative viability (NCI-H2126; first compound 0.5 µM): 0.569
relative viability (NCI-H2347; first compound 0.005 µM): 0.328
relative viability (NCI-H2347; first compound 0.01581 µM): 1
relative viability (NCI-H2347; first compound 0.1581 µM): 0.262
relative viability (NCI-H2347; first compound 0.5 µM): 0.188
relative viability (NCI-H23; first compound 0.005 µM): 0.841
relative viability (NCI-H23; first compound 0.01581 µM): 0.79
relative viability (NCI-H23; first compound 0.05 µM): 0.627
relative viability (NCI-H23; first compound 0.1581 µM): 0.705
relative viability (NCI-H23; first compound 0.5 µM): 0.779
relative viability (NCI-H3122; first compound 0.005 µM): 0.72
relative viability (NCI-H3122; first compound 0.01581 µM): 0.838
relative viability (NCI-H3122; first compound 0.05 µM): 0.904
relative viability (NCI-H3122; first compound 0.1581 µM): 0.821
relative viability (NCI-H3122; first compound 0.5 µM): 0.682
relative viability (NCI-H441; first compound 0.005 µM): 0.739
relative viability (NCI-H441; first compound 0.01581 µM): 0.639
relative viability (NCI-H441; first compound 0.05 µM): 0.549
relative viability (NCI-H441; first compound 0.1581 µM): 0.632
relative viability (NCI-H441; first compound 0.5 µM): 0.637
relative viability (NCI-H596; first compound 0.005 µM): 0.734
relative viability (NCI-H596; first compound 0.01581 µM): 0.68
relative viability (NCI-H596; first compound 0.1581 µM): 0.603
relative viability (NCI-H596; first compound 0.5 µM): 0.438
relative viability (NCI-H647; first compound 0.005 µM): 0.15
relative viability (NCI-H647; first compound 0.01581 µM): 0.192
relative viability (NCI-H647; first compound 0.05 µM): 0.173
relative viability (NCI-H647; first compound 0.1581 µM): 0.17
relative viability (NCI-H647; first compound 0.5 µM): 0.315
relative viability (NCI-H650; first compound 0.005 µM): 0.456
relative viability (NCI-H650; first compound 0.01581 µM): 0.473
relative viability (NCI-H650; first compound 0.05 µM): 0.463
relative viability (NCI-H650; first compound 0.1581 µM): 0.477
relative viability (NCI-H650; first compound 0.5 µM): 0.459
relative viability (NCI-H727; first compound 0.01581 µM): 0.364
relative viability (NCI-H727; first compound 0.1581 µM): 0.365
relative viability (NCI-H727; first compound 0.5 µM): 0.347
relative viability (NCI-H838; first compound 0.005 µM): 0.267
relative viability (NCI-H838; first compound 0.01581 µM): 0.334
relative viability (NCI-H838; first compound 0.05 µM): 0.26
relative viability (NCI-H838; first compound 0.1581 µM): 0.238
relative viability (NCI-H838; first compound 0.5 µM): 0.36
